From patent publication US20080319000A1, “Use of 3,1IB-Cis-Dihydrotetrabenazine for the Treatment of Symptoms of Huntingtons Disease” (CAMBRIDGE LABORATORIES (IRELAND) LIMITED, priority 2005, published 2008)

Experiments:
[1] = target: 5-hydroxytryptamine isoform 1d (Homo sapiens, UniProt P28221); test: 5-hydroxytryptamine 1d inhibition; format: binding
[2] = target: Dopamine Transporter (DAT) (Homo sapiens, UniProt Q01959); test: Dopamine Transporter (DAT) binding
dopamine receptor = test: Dopamine receptor binding
Male Sprague-Dawley rats = test: Spontaneous locomotor activity in rats (sedative properties); format: in vivo; details: for Inactivity Duration / Large movements Duration / Large movements Occurrence: 20 min period, mean ± SEM n=12
Method: A study was carried out in rats to determine whether the dihydrotetrabenazine isomers of the invention have sedative properties. […] Male Sprague-Dawley rats, (Charles River Laboratories, Saint-Germain/L'Arbresle, France), weighing 200-250 g at the beginning of the study, were used for the studies. […] The rats were allowed to acclimatize to their conditions for at least five days before commencement of the study. The rats received food ([…], France, ref. 811002) and water (tap water in water bottle) ad libitum. Solutions of each test compound in corn oil were freshly prepared on the day of the experiment. Haloperidol was prepared in hydroxyethylcellulose, 0.5% in deionized water. Either the vehicle or the test compounds were administered as a single dose (0.3, 1, 3 and 10 mg/kg, 2 mL/kg i.p.). The reference compound haloperidol (1 mg/kg) was administered i.p. […] The animals were placed in plexiglass cages under a video camera in a room with low light intensity (maximum 50 lux). At forty five minutes and 3 hours after administration, locomotor activity was determined during 20 minute periods using a video image analyzer (Videotrack, View Point, France). […] The number and duration of ambulatory movements and duration of inactivity was measured. At the end of the locomotor activity measurement (45 minutes and 3 hours), palpebral closure and arousal were be scored as follows in the plexiglass cage: […] Image tracking was performed using a video camera placed above the plexiglass cage, recording overall locomotor activity. […] The results were expressed as the means ±SEMs of the 12 individual values. Statistical analyses were carried out using ANOVA (one way) and Dunnett's t-test and with the non parametric test of Kruskal-Wallis followed by a Mann & Whitney U-test for the sedation cotation. A p value of p<0.05 was taken as indicating significance. Group size n=12 Group 1: Reference, haloperidol (1 mg/kg i.p.) Group 2: Vehicle control group (2 ml/kg i.p.) Group 3: tetrabenazine (0.3 mg/kg i.p) Group 4: tetrabenazine (1 mg/kg i.p) Group 5: tetrabenazine (3 mg/kg i.p) Group 6: tetrabenazine (10 mg/kg i.p) Group 7: […]

[3] = target: T1, monoamine oxidase isoform A (Homo sapiens, UniProt P21397); test: Monoamine oxidase A inhibition; format: biochemical
T1 sequence (P21397 1-527): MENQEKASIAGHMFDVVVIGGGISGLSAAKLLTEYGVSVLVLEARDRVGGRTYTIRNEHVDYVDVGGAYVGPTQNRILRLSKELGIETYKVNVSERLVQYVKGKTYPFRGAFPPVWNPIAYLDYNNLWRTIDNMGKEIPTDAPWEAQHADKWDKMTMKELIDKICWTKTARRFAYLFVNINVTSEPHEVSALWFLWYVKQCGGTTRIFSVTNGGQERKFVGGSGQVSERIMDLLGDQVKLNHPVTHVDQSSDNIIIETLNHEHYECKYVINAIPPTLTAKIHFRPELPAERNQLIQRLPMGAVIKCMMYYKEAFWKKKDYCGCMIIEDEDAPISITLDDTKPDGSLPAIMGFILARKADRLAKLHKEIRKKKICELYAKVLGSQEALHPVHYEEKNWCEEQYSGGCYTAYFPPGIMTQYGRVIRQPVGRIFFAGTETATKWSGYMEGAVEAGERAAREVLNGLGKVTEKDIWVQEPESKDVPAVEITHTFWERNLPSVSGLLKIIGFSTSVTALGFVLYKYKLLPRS

[4] = target: T2, catechol O-methyl transferase (COMT) (Homo sapiens, UniProt P21964); test: COMT inhibition; format: biochemical
T2 sequence (P21964 1-271): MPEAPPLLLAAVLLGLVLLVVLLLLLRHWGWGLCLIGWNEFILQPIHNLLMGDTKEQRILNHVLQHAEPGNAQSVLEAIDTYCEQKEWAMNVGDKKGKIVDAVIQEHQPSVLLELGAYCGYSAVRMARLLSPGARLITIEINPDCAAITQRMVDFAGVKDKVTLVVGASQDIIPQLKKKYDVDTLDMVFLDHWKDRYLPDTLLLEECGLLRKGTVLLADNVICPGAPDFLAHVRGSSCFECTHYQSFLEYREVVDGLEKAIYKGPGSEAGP

[5] = target: 5-hydroxytryptamine isoform 1b (Homo sapiens, UniProt P28222); test: 5-hydroxytryptamine 1b inhibition; format: binding
Sequence of 5-hydroxytryptamine isoform 1b (P28222 whole entry, canonical isoform): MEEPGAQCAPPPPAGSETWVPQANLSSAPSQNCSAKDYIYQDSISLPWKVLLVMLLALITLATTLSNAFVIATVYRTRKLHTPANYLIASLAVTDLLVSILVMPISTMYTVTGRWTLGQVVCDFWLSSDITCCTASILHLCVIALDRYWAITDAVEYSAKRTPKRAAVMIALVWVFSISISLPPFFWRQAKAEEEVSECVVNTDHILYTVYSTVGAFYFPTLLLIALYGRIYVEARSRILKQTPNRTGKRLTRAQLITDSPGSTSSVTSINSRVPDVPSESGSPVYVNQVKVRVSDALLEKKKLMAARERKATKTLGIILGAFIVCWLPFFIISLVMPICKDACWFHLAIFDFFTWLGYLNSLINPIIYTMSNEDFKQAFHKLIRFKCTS

[6] = target: serotonin transporter protein SERT (Homo sapiens, UniProt P31645); test: Serotonin transporter SERT inhibition; format: binding
Sequence of serotonin transporter protein SERT (P31645 whole entry, canonical isoform): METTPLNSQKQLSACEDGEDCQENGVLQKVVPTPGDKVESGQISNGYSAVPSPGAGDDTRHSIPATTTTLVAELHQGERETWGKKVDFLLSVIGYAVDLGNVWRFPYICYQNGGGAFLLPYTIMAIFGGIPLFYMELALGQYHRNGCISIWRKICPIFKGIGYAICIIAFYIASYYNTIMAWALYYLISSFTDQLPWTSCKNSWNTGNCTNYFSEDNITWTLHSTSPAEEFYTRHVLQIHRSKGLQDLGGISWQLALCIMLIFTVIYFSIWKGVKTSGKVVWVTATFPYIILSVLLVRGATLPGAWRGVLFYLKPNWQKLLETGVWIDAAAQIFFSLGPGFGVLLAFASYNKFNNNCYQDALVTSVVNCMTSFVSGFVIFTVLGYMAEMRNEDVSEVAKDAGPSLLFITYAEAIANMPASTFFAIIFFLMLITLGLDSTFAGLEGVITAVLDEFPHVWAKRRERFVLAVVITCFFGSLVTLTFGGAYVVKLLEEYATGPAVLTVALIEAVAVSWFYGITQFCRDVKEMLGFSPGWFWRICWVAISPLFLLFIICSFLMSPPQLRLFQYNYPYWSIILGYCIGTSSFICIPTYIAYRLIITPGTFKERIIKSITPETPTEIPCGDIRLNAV

[7] = target: T3, monoamine oxidase isoform B (Homo sapiens, UniProt P27338); test: Monoamine oxidase B inhibition; format: biochemical
T3 sequence (P27338 1-520): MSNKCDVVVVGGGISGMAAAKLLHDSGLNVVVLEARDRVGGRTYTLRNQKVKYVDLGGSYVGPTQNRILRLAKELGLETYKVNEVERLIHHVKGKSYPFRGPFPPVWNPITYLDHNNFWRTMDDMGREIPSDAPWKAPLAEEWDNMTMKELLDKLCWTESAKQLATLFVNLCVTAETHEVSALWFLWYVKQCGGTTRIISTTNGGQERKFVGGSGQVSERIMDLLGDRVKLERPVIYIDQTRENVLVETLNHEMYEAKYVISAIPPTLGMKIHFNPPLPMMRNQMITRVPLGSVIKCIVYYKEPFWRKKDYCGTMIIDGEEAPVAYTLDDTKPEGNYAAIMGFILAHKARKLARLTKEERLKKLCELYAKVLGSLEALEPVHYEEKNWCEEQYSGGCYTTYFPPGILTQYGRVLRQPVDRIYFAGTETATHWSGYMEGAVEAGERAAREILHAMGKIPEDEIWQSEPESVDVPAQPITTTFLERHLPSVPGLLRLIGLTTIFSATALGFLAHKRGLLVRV

adrenergic receptors = test: Adrenergic receptor inhibition; format: binding
[8] = rats, 0.3 mg/kg i.p., 45 minutes after administration
[9] = rats, 0.3 mg/kg i.p., 3 hours after administration
[10] = rats, 1 mg/kg i.p., 45 minutes after administration
[11] = rats, 1 mg/kg i.p., 3 hours after administration
[12] = rats, 3 mg/kg i.p., 45 minutes after administration
[13] = rats, 3 mg/kg i.p., 3 hours after administration
[14] = rats, 10 mg/kg i.p., 45 minutes after administration
[15] = rats, 10 mg/kg i.p., 3 hours after administration

Sequence of 5-hydroxytryptamine isoform 1d (P28221 whole entry, canonical isoform): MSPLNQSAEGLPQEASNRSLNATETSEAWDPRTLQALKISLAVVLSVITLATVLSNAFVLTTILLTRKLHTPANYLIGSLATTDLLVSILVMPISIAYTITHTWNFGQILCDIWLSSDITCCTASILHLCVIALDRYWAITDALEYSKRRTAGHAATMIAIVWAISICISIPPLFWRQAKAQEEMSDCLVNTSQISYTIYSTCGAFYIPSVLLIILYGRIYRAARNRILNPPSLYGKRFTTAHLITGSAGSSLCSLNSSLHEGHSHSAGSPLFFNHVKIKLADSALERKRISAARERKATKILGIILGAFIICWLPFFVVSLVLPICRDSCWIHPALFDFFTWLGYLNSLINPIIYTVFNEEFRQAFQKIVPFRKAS
Sequence of Dopamine Transporter (DAT) (Q01959 whole entry, species assumed): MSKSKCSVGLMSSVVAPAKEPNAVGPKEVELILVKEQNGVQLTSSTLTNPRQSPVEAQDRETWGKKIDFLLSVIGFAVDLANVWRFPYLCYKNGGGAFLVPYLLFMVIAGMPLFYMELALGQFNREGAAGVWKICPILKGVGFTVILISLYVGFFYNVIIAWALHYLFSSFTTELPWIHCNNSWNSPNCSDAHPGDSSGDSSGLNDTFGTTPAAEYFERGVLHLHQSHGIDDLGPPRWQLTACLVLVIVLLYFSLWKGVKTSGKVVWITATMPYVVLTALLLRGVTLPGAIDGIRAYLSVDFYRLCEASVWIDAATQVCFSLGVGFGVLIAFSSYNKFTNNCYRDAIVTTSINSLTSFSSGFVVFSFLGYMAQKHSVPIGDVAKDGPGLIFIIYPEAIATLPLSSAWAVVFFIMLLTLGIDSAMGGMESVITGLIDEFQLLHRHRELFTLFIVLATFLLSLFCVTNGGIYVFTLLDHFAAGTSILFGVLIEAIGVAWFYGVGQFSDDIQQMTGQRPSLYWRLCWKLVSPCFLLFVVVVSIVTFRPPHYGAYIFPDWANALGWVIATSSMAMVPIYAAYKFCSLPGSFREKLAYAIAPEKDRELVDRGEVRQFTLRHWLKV

Compound: COc1cc2c(cc1OC)C1CC(O)C(CC(C)C)CN1CC2 (single isomer, unassigned; isomer c) [Isomer C]
- inhibitory activity against 5-hydroxytryptamine isoform 1d [1]: no inhibitory activity
- Dopamine Transporter (DAT) binding activity [2]: lack Dopamine Transporter (DAT) binding activity
- dopamine receptor binding activity (dopamine receptor): only weak or non-existent
- sedative effect (Male Sprague-Dawley rats; locomotor studies carried out on rats): no sedative effects were observed
- Inactivity Duration (Male Sprague-Dawley rats; [8]): 323.7 ± 25.6 s
- Large movements Duration (Male Sprague-Dawley rats; [8]): 79.2 ± 10.0 s
- Large movements Occurrence (Male Sprague-Dawley rats; [8]): 285 ± 34
- Inactivity Duration (Male Sprague-Dawley rats; [9]): 519.3 ± 33.7 s
- Large movements Duration (Male Sprague-Dawley rats; [9]): 31.4 ± 6.0 s
- Large movements Occurrence (Male Sprague-Dawley rats; [9]): 113 ± 19
- Inactivity Duration (Male Sprague-Dawley rats; [10]): 324.6 ± 38.1 s
- Large movements Duration (Male Sprague-Dawley rats; [10]): 71.8 ± 8.3 s
- Large movements Occurrence (Male Sprague-Dawley rats; [10]): 295 ± 30
- Inactivity Duration (Male Sprague-Dawley rats; [11]): 510.2 ± 44.9 s
- Large movements Duration (Male Sprague-Dawley rats; [11]): 30.3 ± 6.5 s
- Large movements Occurrence (Male Sprague-Dawley rats; [11]): 128 ± 24
- Inactivity Duration (Male Sprague-Dawley rats; [12]): 322.7 ± 27.8 s
- Large movements Duration (Male Sprague-Dawley rats; [12]): 84.0 ± 9.4 s
- Large movements Occurrence (Male Sprague-Dawley rats; [12]): 308 ± 36
- Inactivity Duration (Male Sprague-Dawley rats; [13]): 493.6 ± 38.5 s
- Large movements Duration (Male Sprague-Dawley rats; [13]): 30.2 ± 5.5 s
- Large movements Occurrence (Male Sprague-Dawley rats; [13]): 125 ± 22
- Inactivity Duration (Male Sprague-Dawley rats; [14]): 368.7 ± 30.9 s
- Large movements Duration (Male Sprague-Dawley rats; [14]): 66.5 ± 9.9 s
- Large movements Occurrence (Male Sprague-Dawley rats; [14]): 254 ± 32
- Inactivity Duration (Male Sprague-Dawley rats; [15]): 465.7 ± 49.0 s
- Large movements Duration (Male Sprague-Dawley rats; [15]): 42.7 ± 8.0 s
- Large movements Occurrence (Male Sprague-Dawley rats; [15]): 164 ± 30
- sedative effect (Male Sprague-Dawley rats; rats, 0.3, 1, 3 and 10 mg/kg i.p., 45 minutes and 3 hours after administration): no sedative effects at any time
- hyperlocomotor effect (Male Sprague-Dawley rats; rats, 3 hours after administration): slight and non-significant hyperlocomotor effect
- inhibitory activity against monoamine oxidase isoform A [3]: no inhibitory activity
- inhibitory activity against catechol O-methyl transferase (COMT) [4]: no inhibitory activity
- inhibitory activity against 5-hydroxytryptamine isoform 1b [5]: no inhibitory activity
- inhibition of the serotonin transporter protein SERT [6]: potent inhibitors
- inhibitory activity against monoamine oxidase isoform B [7]: no inhibitory activity
- inhibition of the adrenergic receptors (adrenergic receptors): either weakly active or inactive

Compound: O=C(CCCN1CCC(O)(c2ccc(Cl)cc2)CC1)c1ccc(F)cc1 [haloperidol, reference compound]
- Inactivity Duration (Male Sprague-Dawley rats; [10]): 637.2 ± 60.1 s
- Large movements Duration (Male Sprague-Dawley rats; [10]): 14.8 ± 8.5 s
- Large movements Occurrence (Male Sprague-Dawley rats; [10]): 58 ± 33
- Inactivity Duration (Male Sprague-Dawley rats; [11]): 723.6 ± 50.2 s
- Large movements Duration (Male Sprague-Dawley rats; [11]): 2.2 ± 2.0 s
- Large movements Occurrence (Male Sprague-Dawley rats; [11]): 9 ± 8
